Results reported in US8173704B2, “Difluorophenol derivatives and their use” (Bayer Pharma Aktiengesellschaft, priority 2005, dated 2012).

Key:
[1] = test system: saphenous artery rings; experiment: Vasorelaxant effect in vitro (phenylephrine-contracted artery rings); type: cell-based; settings: rabbit saphenous artery rings, contraction induced by phenylephrine
Procedure: Rabbits are anesthetized and sacrificed by intravenous injection of thiopental sodium (about 50 mg/kg) and exsanguinated. The saphenous artery is removed and divided into rings 3 mm wide. The rings are mounted singly on in each case a pair of triangular hooks open at the end and made of 0.3 mm-thick special wire (Remanium®). Each ring is placed under an initial tension in 5 ml organ baths with Krebs-Henseleit solution which is at 37° C., is gassed with 95% O2/5% CO2 and has the following composition: NaCl 119 mM; KCl 4.8 mM; CaCl2×2H2O 1 mM; MgSO4×7 H2O 1.4 mM; KH2PO4 1.2 mM; NaHCO3 25 mM; glucose 10 mM; bovine serum albumin 0.001%. The force of contraction is detected with Statham UC2 cells, amplified and digitized via A/D converters (DAS-1802 HC, Keithley Instruments, Munich) and recorded in parallel on chart recorders. Contractions are induced by addition of phenylephrine.
After several (generally 4) control cycles, the substance to be investigated is added in each further run in increasing dosage, and the height of the contraction achieved under the influence of the test substance is compared with the height of the contraction reached in the last preceding run. The concentration necessary to reduce the contraction reached in the preceding control by 50% is calculated from this (IC50). The standard application volume is 5 μl. The proportion of DMSO in the bath solution corresponds to 0.1%.

[2] = biological target: T1, Heme-containing sGC (recombinant soluble guanylate cyclase) (Rattus norvegicus, UniProt P20595); experiment: Stimulation of recombinant soluble guanylate cyclase (sGC) in vitro, heme-containing enzyme; type: biochemical
T1 construct: made in house; host or cells: baculovirus/Sf9 insect cells
T1 sequence (P20595 1-619): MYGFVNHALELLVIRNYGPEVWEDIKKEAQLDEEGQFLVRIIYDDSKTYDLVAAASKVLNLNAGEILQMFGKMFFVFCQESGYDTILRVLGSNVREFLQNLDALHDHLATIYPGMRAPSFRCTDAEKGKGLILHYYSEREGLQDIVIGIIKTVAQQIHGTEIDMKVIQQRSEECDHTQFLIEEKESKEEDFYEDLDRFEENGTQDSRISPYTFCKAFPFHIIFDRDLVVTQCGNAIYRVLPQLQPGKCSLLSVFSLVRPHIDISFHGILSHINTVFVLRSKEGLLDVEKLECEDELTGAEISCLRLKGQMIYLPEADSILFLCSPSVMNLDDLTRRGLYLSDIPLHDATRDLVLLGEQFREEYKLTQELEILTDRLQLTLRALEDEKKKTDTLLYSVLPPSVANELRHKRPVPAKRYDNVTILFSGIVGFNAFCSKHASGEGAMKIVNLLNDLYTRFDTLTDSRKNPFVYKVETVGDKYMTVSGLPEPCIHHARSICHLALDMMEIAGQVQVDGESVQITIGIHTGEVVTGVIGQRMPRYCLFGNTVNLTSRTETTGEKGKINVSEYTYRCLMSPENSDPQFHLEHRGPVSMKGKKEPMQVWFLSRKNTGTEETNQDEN
T1 sequence (P19686 1-690 partner): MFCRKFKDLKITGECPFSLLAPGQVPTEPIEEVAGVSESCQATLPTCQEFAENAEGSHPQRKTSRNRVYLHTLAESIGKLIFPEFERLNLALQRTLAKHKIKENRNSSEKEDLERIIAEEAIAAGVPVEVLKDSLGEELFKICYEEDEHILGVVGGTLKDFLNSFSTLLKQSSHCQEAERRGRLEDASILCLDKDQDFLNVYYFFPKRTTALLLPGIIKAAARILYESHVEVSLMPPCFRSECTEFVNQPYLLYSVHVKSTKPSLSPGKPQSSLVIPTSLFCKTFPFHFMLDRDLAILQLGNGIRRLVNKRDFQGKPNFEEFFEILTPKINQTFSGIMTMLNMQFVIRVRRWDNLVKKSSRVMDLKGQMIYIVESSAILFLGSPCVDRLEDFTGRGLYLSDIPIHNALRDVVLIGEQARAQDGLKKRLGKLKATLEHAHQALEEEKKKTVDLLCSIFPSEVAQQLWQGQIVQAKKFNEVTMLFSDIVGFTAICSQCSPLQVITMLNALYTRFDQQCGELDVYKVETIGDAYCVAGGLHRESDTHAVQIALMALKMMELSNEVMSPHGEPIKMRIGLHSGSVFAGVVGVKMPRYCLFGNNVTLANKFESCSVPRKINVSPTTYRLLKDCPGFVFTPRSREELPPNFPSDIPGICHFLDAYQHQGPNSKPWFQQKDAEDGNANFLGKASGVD
From the text: Hoenicka, E. M. Becker, H. Apeler, T. Sirichoke, H. Schroeder, R. Gerzer and J.-P. Stasch, “Purified soluble guanylyl cyclase expressed in a baculovirus/Sf9 system: Stimulation by YC-1, nitric oxide, and carbon oxide”, J. Mol. Med. 77 (1999), 14-23. The heme-free guanylate cyclase is obtained by adding Tween 20 to the sample buffer (0.5% in the final concentration).
(§1) The activation of sGC by a test substance is reported as n-fold stimulation of the basal activity.

[3] = biological target: T2, Heme-free sGC (recombinant soluble guanylate cyclase) (Rattus norvegicus, UniProt P20595); experiment: Stimulation of recombinant soluble guanylate cyclase (sGC) in vitro, heme-free enzyme; type: biochemical
T2 construct: made in house; host or cells: baculovirus/Sf9 insect cells
T2 sequence (P20595 1-619): T1 sequence (P20595 1-619)
T2 sequence (P19686 1-690 partner): T1 sequence (P19686 1-690 partner)
Procedure: Investigations on the stimulation of recombinant soluble guanylate cyclase (sGC) by the compounds according to the invention with and without sodium nitroprusside, and with and without the heme-dependent sGC inhibitor 1H-1,2,4-oxadiazole-(4,3a)-quinoxalin-1-one (ODQ) are carried out by the method described in detail in the following reference: M. Hoenicka, E. M. Becker, H. Apeler, T. Sirichoke, H. Schroeder, R. Gerzer and J.-P. Stasch, “Purified soluble guanylyl cyclase expressed in a baculovirus/Sf9 system: Stimulation by YC-1, nitric oxide, and […]”, J. Mol. Med. 77 (1999), 14-23. The heme-free guanylate cyclase is obtained by adding Tween 20 to the sample buffer (0.5% in the final concentration).
as §1

[4] = 0.001 μM Example 13 + 10 μM ODQ

SMILES: O=C(O)CCCCC(/C=C/c1cc(F)ccc1OCc1ccc(-c2ccc(C(F)(F)F)cc2)cc1)Cc1cc(F)c(O)c(F)c1 (single isomer, unassigned) [Example 4, E-6-(3,5-Difluoro-4-hydroxybenzyl)-8-[5-fluoro-2-(4′-trifluoromethylbiphenyl-4-ylmethoxy)phenyl]oct-7-enoic acid]
- IC50 [1]: 960 nM

SMILES: O=C(O)CCCCC(/C=C/c1cc(F)ccc1OCc1ccc(-c2ccc(C(F)(F)F)cc2)cc1)Cc1cc(F)c(O)c(F)c1 (single isomer, unassigned) [Example 5, E-6-(3,5-Difluoro-4-hydroxybenzyl)-8-[5-fluoro-2-(4′-trifluoromethylbiphenyl-4-ylmethoxy)phenyl]oct-7-enoic acid]
- IC50 [1]: 300 nM

SMILES: O=C(O)CCCCC(/C=C\c1cc(F)ccc1OCc1ccc(-c2ccc(C(F)(F)F)cc2)cc1)Cc1cc(F)c(O)c(F)c1 (single isomer, unassigned) [Example 6, Z-6-(3,5-Difluoro-4-hydroxybenzyl)-8-[5-fluoro-2-(4′-trifluoromethylbiphenyl-4-ylmethoxy)phenyl]oct-7-enoic acid]
- IC50 ([1]; Oryctolagus cuniculus): 2700 nM

SMILES: O=C(O)CCCCC(/C=C\c1cc(F)ccc1OCc1ccc(-c2ccc(C(F)(F)F)cc2)cc1)Cc1cc(F)c(O)c(F)c1 (single isomer, unassigned) [Example 7, Z-6-(3,5-Difluoro-4-hydroxybenzyl)-8-[5-fluoro-2-(4′-trifluoromethylbiphenyl-4-ylmethoxy)phenyl]oct-7-enoic acid]
- IC50 [1]: 2600 nM

SMILES: O=C(O)CCCCC(/C=C/c1cc(F)ccc1OCc1ccccc1Cl)Cc1cc(F)c(O)c(F)c1 (single isomer, unassigned) [Example 8, E-8-[2-(2-Chlorobenzyloxy)-5-fluorophenyl]-6-(3,5-difluoro-4-hydroxybenzyl)oct-7-enoic acid]
- IC50 ([1]; Oryctolagus cuniculus): 647 nM

SMILES: CC(C)(C)c1ccc(COc2ccccc2/C=C/C(CCc2ccc(C(=O)O)cc2)Cc2cc(F)c(O)c(F)c2)cc1 (single isomer, unassigned) [Example 13, E4-[5-[2-(4-tert-Butylbenzyloxy)phenyl]-3-(3,5-difluoro-4-hydroxybenzyl)pent-4-enyl]benzoic acid]
- IC50 [1]: 24.5 nM
- Stimulation (n-fold) of heme-containing sGC, Basal ([2]; 0.001 μM Example 13): 1.7 n-fold
- Stimulation (n-fold) of heme-containing sGC, +0.1 μM DEA/NO ([2]; 0.001 μM Example 13 + 0.1 μM DEA/NO): 26.3 n-fold
- Stimulation (n-fold) of heme-containing sGC, +10 μM ODQ [2, 4]: 37.5 n-fold
- Stimulation (n-fold) of heme-containing sGC, Basal ([2]; 0.01 μM Example 13): 6.7 n-fold
- Stimulation (n-fold) of heme-containing sGC, +0.1 μM DEA/NO ([2]; 0.01 μM Example 13 + 0.1 μM DEA/NO): 31.2 n-fold
- Stimulation (n-fold) of heme-containing sGC, +10 μM ODQ ([2]; 0.01 μM Example 13 + 10 μM ODQ): 38.8 n-fold
- Stimulation (n-fold) of heme-containing sGC, Basal ([2]; 0.1 μM Example 13): 19.2 n-fold
- Stimulation (n-fold) of heme-containing sGC, +0.1 μM DEA/NO ([2]; 0.1 μM Example 13 + 0.1 μM DEA/NO): 40.2 n-fold
- Stimulation (n-fold) of heme-containing sGC, +10 μM ODQ ([2]; 0.1 μM Example 13 + 10 μM ODQ): 43.8 n-fold
- Stimulation (n-fold) of heme-containing sGC, Basal ([2]; 1 μM Example 13): 24.2 n-fold
- Stimulation (n-fold) of heme-containing sGC, +0.1 μM DEA/NO ([2]; 1 μM Example 13 + 0.1 μM DEA/NO): 43.2 n-fold
- Stimulation (n-fold) of heme-containing sGC, +10 μM ODQ ([2]; 1 μM Example 13 + 10 μM ODQ): 52.2 n-fold
- Stimulation (n-fold) of heme-containing sGC, Basal ([2]; 10 μM Example 13): 36.2 n-fold
- Stimulation (n-fold) of heme-containing sGC, +0.1 μM DEA/NO ([2]; 10 μM Example 13 + 0.1 μM DEA/NO): 62.0 n-fold
- Stimulation (n-fold) of heme-containing sGC, +10 μM ODQ ([2]; 10 μM Example 13 + 10 μM ODQ): 63.7 n-fold
- Effect of combination with the NO donor DEA/NO on sGC stimulation ([2]; combination with DEA/NO): no synergistic effect
- Effect of the heme-dependent sGC inhibitor ODQ on the sGC activation ([2]; with ODQ, effect is in fact increased): not blocked
- Stimulation (n-fold) of heme-free sGC, Basal ([3]; 0.001 μM Example 13): 4.1 n-fold
- Stimulation (n-fold) of heme-free sGC, +10 μM ODQ [3, 4]: 4.0 n-fold
- Stimulation (n-fold) of heme-free sGC, Basal ([3]; 0.01 μM Example 13): 30.6 n-fold
- Stimulation (n-fold) of heme-free sGC, +10 μM ODQ ([3]; 0.01 μM Example 13 + 10 μM ODQ): 27.1 n-fold
- Stimulation (n-fold) of heme-free sGC, Basal ([3]; 0.1 μM Example 13): 94.4 n-fold
- Stimulation (n-fold) of heme-free sGC, +10 μM ODQ ([3]; 0.1 μM Example 13 + 10 μM ODQ): 88.6 n-fold
- Stimulation (n-fold) of heme-free sGC, Basal ([3]; 1 μM Example 13): 122.8 n-fold
- Stimulation (n-fold) of heme-free sGC, +10 μM ODQ ([3]; 1 μM Example 13 + 10 μM ODQ): 118.5 n-fold
- Stimulation (n-fold) of heme-free sGC, Basal ([3]; 10 μM Example 13): 126.3 n-fold
- Stimulation (n-fold) of heme-free sGC, +10 μM ODQ ([3]; 10 μM Example 13 + 10 μM ODQ): 118.4 n-fold

SMILES: CC(C)(C)c1ccc(COc2ccccc2/C=C/C(CCc2ccc(C(=O)O)cc2)Cc2cc(F)c(O)c(F)c2)cc1 (single isomer, unassigned) [Example 14, E-4-[5-[2-(4-tert-Butylbenzyloxy)phenyl]-3-(3,5-difluoro-4-hydroxybenzyl)pent-4-enyl]benzoic acid]
- IC50 [1]: 1220 nM

SMILES: O=C(O)CCCCN(CCc1cc(F)ccc1OCc1ccc(-c2ccc(C(F)(F)F)cc2)cc1)Cc1cc(F)c(O)c(F)c1 [Example 18, 5-{(3,5-Difluoro-4-hydroxybenzyl)-[2-(5-fluoro-2-{[4′-(trifluoromethyl)biphenyl-4-yl]methoxy}phenyl)ethyl]amino}pentanoic acid]
- IC50 ([1]; Oryctolagus cuniculus): 43 nM
